Reference: patent US8795992B2, “Yeast with increased butanol tolerance involving cell wall integrity pathway” (Butamax Advanced Biofuels LLC, priority 2008, dated 2014)

What was measured:
BY4743 = test: Growth of BY4743 in isobutanol (growth yield, OD600); assay type: cell-based, Saccharomyces cerevisiae; conditions: 1 day (20 hr), 30° C.
[1] = system: Δslt2/Δslt2 (BY4743 having homozygous deletion of the SLT2 gene); test: Growth of Δslt2 strain in isobutanol (growth yield, OD600); assay type: cell-based, Saccharomyces cerevisiae; conditions: 1 day (20 hr), 30° C.

Compound: CC(C)CO [isobutanol]
- OD (A600) (BY4743; 0.25 wt % isobutanol): >1
- OD (A600) (BY4743; 0.50 wt % isobutanol): >1
- OD (A600) (BY4743; 0.75 wt % isobutanol): 0.07
- OD (A600) (BY4743; 0.87 wt % isobutanol): 0.07
- OD (A600) (BY4743; 1.00 wt % isobutanol): 0.04
- OD (A600) (BY4743; 1.25 wt % isobutanol): 0.02
- OD (A600) (BY4743; 1.50 wt % isobutanol): 0.04
- OD (A600) ([1]; 0.25 wt % isobutanol): 0.07
- OD (A600) ([1]; 0.50 wt % isobutanol): 0.03
- OD (A600) ([1]; 0.75 wt % isobutanol): 0.03
- OD (A600) ([1]; 0.87 wt % isobutanol): 0.01
- OD (A600) ([1]; 1.00 wt % isobutanol): 0.01
- OD (A600) ([1]; 1.25 wt % isobutanol): 0.02
- OD (A600) ([1]; 1.50 wt % isobutanol): 0.02
